The test system of test [1] is MCF-7 mammary tumoral cells. Nature of the test: Anti-proliferative activity upon the growth of MCF-7 cells (DNA measurement with DABA). Particulars: 6 days, inhibition of the increase of DNA, read-out: concentration which inhibited the growth of MCF7 to an extent of 50% (IC50). The class given is cell-based. How it is done: B. Anti-proliferative activity of the products of the invention upon the growth of MCF-7 mammary tumoral cells.
The MCF-7 strains were kept under culture in FCS(1) medium at 37° C. under a humid atmosphere containing 5% CO2 and the cells at subconfluence were harvested by trypsination (0.05% trypsine, 0.02% EDTA), then rinsed by gentle centrifugation. A sample of the cells in suspension was counted on Malassez cell.
The cells, resuspended in FCS medium, were seeded at a rate of 30,000 cells per pit in multi-pit plates (24 pits of 2.5 cm^2) and twenty four hours after seeding (DO), the product to be tested was added to the medium in ethanolic solution (final concentration in ethanol: 0.1%), at a concentration of 10^−12 to 10^−6 M, the control pits receiving the same concentration of ethanol. The media were renewed every 48 hours and at the end of the experiment (D6), the medium was sucked off and the cells were immediately fixed with 150 microliters of methanol to estimate the DNA. The anti-proliferative activity of the products was evaluated by their capacity to inhibit the increase of DNA.
The DNA was measured by a fluorimetric method employing DABA (3,5-diaminobenzoic acid) (2): 150 microliters of DABA were added to each of the pits and the plates were then incubated for 45 minutes at 56° C., then 2 ml of 1 N HCl were added. The fluorescence was measured with the aid of a fluorimeter (length of the exiting wave: 408 nm, length of the emitting wave: 501 nm). The quantity of DNA per pit was evaluated with reference to a standard scale obtained by treating a standard DNA from calf thymus under the same conditions.
The concentration in nM which inhibited the growth of MCF7 to an extent of 50% (IC50) was determined in the manner indicated below:
(1) The fetal calf serum (FCS) culture medium was prepared as follows: MEM medium (minimal essential medium) to which were added:
Non-essential amino acids (GIBCO),
Peni-strepto (100 U/ml penicillin, 0.1 mg/ml streptomycin),
Fetal calf serum containing no steroids (10% final concentration).
(2) Puzas and Goodman, Analytical Biochemistry, Vol. 86, pp. 50, 1978.

Test [2] concerns the target T1, Estrogenic Receptor of Mouse Uterus (Mus musculus, UniProt P19785).
T1 construct: their uteri were removed, then homogenized at 0° C; from tissue; host or cells: uterine cytosol (105,000 g supernatant) of immature female mice
T1 sequence (P19785 1-599): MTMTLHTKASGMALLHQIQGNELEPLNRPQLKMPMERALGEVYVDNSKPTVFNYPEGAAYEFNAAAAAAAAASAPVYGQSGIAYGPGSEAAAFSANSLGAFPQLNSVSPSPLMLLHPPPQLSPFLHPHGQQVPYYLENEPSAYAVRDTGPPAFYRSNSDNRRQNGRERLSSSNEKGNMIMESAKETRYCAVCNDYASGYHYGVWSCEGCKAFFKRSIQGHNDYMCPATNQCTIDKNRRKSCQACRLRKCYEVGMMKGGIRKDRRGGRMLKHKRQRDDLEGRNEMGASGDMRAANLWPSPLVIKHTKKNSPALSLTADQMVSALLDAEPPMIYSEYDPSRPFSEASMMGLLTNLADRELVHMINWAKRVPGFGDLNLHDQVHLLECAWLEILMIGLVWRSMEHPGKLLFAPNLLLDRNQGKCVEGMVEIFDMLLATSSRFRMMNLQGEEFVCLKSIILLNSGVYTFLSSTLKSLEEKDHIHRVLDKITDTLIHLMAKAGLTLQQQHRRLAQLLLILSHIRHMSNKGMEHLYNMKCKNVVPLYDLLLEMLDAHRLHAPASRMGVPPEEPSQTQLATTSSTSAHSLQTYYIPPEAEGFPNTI
The test can be described thus: Relative affinity of the bond, estrogen receptor (tritiated estradiol displacement). Type of test: binding. Particulars: for affinity for the estrogen receptors: at the second time (incubation); for Relative affinity of the bond (RAB), Oestrogen, 2 H: incubation 2 H at 0° C.; for Relative affinity of the bond (RAB), Oestrogen, 2 H / Relative affinity of the bond (RAB), Oestrogen, 6 H / Relative affinity of the bond (RAB), Oestrogen Receptors, 5 Hrs / Relative affinity of the bond (RAB), Oestrogen Receptors, 2 Hrs: RAB=100(CH)/(CX); for Relative affinity of the bond (RAB), Oestrogen, 6 H: incubation 6 H (second time); for Relative affinity of the bond (RAB), Oestrogen Receptors, 5 Hrs: incubation time 5 Hrs; for Relative affinity of the bond (RAB), Oestrogen Receptors, 5 Hrs / Relative affinity of the bond (RAB), Oestrogen Receptors, 2 Hrs: second part of the table; for Relative affinity of the bond (RAB), Oestrogen Receptors, 2 Hrs: incubation time 2 Hrs. How it is done:
Estrogenic Receptor of Mouse Uterus:
Impuberal female mice aged from 18 to 21 days were killed and their uteri were removed, then homogenized at 0° C. with the aid of a Potter teflon-glass in a TS buffered solution (10 mM Tris, 0.25 M saccharose, HCL pH 7.4) (1 g of tissue for 25 ml of TS). The homogenate was ultracentrifuged (105,000 g×90 min) at 0° C. and aliquots of the supernatant were incubated at 0° C. or at 25° C. for a time (t) with a constant concentration (T) of tritiated estradiol in the presence of increasing concentrations (0-1000×10^−9 M) either of cold estradiol, or of the cold product to be tested. The concentration (B) of bound tritiated estradiol was measured in each incubate by the technique of adsorption on dextran carbon.
Calculation of the Relative Affinty of the Bond
The calculation of the Relative Affinity of the Bond (RAB) was identical for all the receptors. The following 2 curves were traced; the percentage of the bound tritiated hormone [formula]
was a function of the logarithm of the concentration of the cold reference hormone and [formula]
as a function of the logarithm of the concentration of the cold product tested.
One determined the straight line of the equation [formula]
The intersections of the straight line I50 and of the curves make it possible to evaluate the concentrations of the cold reference hormone (CH) and of the tested cold product (CX) which inhibit to an extend of 50% the binding of the tritiated hormone upon the receptor. The relative affinity of the bond (RAB) of the tested product is determined by the equation

Molecules are shown by their SMILES.

The text below walks through data of patent publication US6790971B1, “19-Nor-steroids” (Aventis Pharma S.A., priority 1989, dated 2004).

`CCCCN(C)C(=O)CCCCCCCc1ccc([C@H]2C[C@]3(C)[C@@H](O)CC[C@H]3[C@@H]3CCc4cc(O)ccc4[C@H]32)cc1` [Example 8, N-Butyl-4-[3,17β-dihydroxy-Δ^1,3,5(10)-estratrien-11β-yl]-N-methyl benzene octanamide]: in test [1], the IC50 turned out to be 0.04 nM. Moreover, the “affinity for the estrogen receptors” value in test [2] is “marked affinity”.
With `CCCCN(C)C(=O)CCCCCC#Cc1ccc([C@H]2C[C@]3(C)[C@@H](O)CC[C@H]3[C@@H]3CCc4cc(O)ccc4[C@H]32)cc1` [Example 35], the IC50 in test [1] was found to be 0.04 nM. In addition, in test [2], the “Relative affinity of the bond (RAB), Oestrogen, 2 H” value (“Relative affinity … Oestrogen, 2 H” below) was 0.13 and the “Relative affinity of the bond (RAB), Oestrogen, 6 H” value (“Relative affinity of the bond … 6 H” below) was found to be 12.
As for `CCCCN(C)C(=O)COCCCCCC#Cc1ccc([C@H]2C[C@]3(C)[C@@H](O)CC[C@H]3[C@@H]3CCc4cc(O)ccc4[C@H]32)cc1` [Example 37, 2-((7-(4-(3,17β-dihydroxy-Δ^1,3,5(10)-estratrien-11β-yl)-phenyl)-6-heptynyl.)-oxy)-N-butyl-N-methyl Acetamide], the IC50 in test [1] was 0.03 nM. Further, in test [2], the “affinity for the estrogen receptors” value is listed as “marked affinity”; the “Relative affinity … Oestrogen, 2 H” value was found to be 0.6; the “Relative affinity of the bond … 6 H” value is listed as 28.
For the compound `CCCCN(C)C(=O)COCCCCCOc1ccc([C@H]2C[C@]3(C)[C@@H](O)CC[C@H]3[C@@H]3CCc4cc(O)ccc4[C@H]32)cc1` [Example 43, N-butyl-[5-[4-(3,17β-dihydroxy-Δ^1,3,5(10)-estratrien-11β-yl)-phenoxy]-pentyloxy]-N-methyl acetamide], in test [1], the IC50 amounted to 0.002 nM. In test [2], the “Relative affinity … Oestrogen, 2 H” value is 4.0 and the “Relative affinity of the bond … 6 H” value is listed as 3.0.
Turning to `CCCCN(C)C(=O)CCCCCCCOc1ccc([C@H]2C[C@]3(C)[C@@H](O)CC[C@H]3[C@@H]3CCc4cc(O)ccc4[C@H]32)cc1` [Example 46, N-butyl-8-[4-(3,17β-dihydroxy-Δ^1,3,5,(10)-estratrien-11β-yl)-phenoxy]-N-methyl Octanamide], the IC50 in test [1] stood at 0.006 nM. Also, in test [2], the “affinity for the estrogen receptors” value was “marked affinity”; the “Relative affinity … Oestrogen, 2 H” value is recorded as 0.3; the “Relative affinity of the bond … 6 H” value was determined as 65.
In the same order, the values of `C#C[C@]1(O)CC[C@H]2[C@@H]3CCc4cc(O)ccc4[C@H]3[C@@H](CCCCCCCCCCC(=O)N(C)C(C)C)C[C@@]21C` [Example 55, 3,17β-Dihydroxy-N-Methyl-N-Isopropyl-19-Nor-17α-Δ^1,3,5(10)-Pregnatrien-20-Yn-118-Undecanamide] are 0.01 nM, “marked affinity”, 1.2 and 45.
In the case of `CC(C)N(C)C(=O)COCCCCCCCC[C@H]1C[C@]2(C)[C@@H](O)CC[C@H]2[C@@H]2CCc3cc(O)ccc3[C@@H]12` [Example 71, [[8(3,17beta-dihydroxy-estra-1,3,5(10)-trien-11beta-yl)-octyl]-oxy]-N-methyl-N-(1-methylethyl) acetamide], the IC50 in test [1] turned out to be 0.1 nM. Further, in test [2], the “affinity for the estrogen receptors” value was “marked affinity”; the “Relative affinity … Oestrogen, 2 H” value is recorded as 0.6; the “Relative affinity of the bond … 6 H” value is 50.
As to `CCCCN(C)C(=S)COCCCCCOc1ccc([C@H]2C[C@]3(C)[C@@H](O)CC[C@H]3[C@@H]3CCc4cc(O)ccc4[C@H]32)cc1` [Example 78, N-butyl-[5-[4-(3,17β-dihydroxy-δ^1,3,5(10)-estratrien-11β-yl)-phenoxy]-pentyloxy]-N-methyl-ethanethioamide], the IC50 in test [1] amounted to 0.03 nM. For the same compound, in test [2], the “Relative affinity of the bond (RAB), Oestrogen Receptors, 5 Hrs” value (“Relative affinity of the bond (RAB) … 5 Hrs” for short) is reported as 20.
Consider `CCCCN(C)C(=S)CCCCCCCOc1ccc([C@H]2C[C@]3(C)[C@@H](O)CC[C@H]3[C@@H]3CCc4cc(O)ccc4[C@H]32)cc1` [Example 79, N-butyl-8-(4-(3,17β-dihydroxy-δ^1,3,5(10)-estratrien-11β-yl)-phenoxy)-N-methyloctanethioamide], for which the IC50 in test [1] amounted to 0.035 nM. The “Relative affinity of the bond (RAB) … 5 Hrs” value in test [2] was 16.
In the case of `CN(CC(F)(F)C(F)(F)C(F)(F)F)C(=O)CCCCCCCOc1ccc([C@H]2C[C@]3(C)[C@@H](O)CC[C@H]3[C@@H]3CCc4cc(O)ccc4[C@H]32)cc1` [Example 82, 8-(4-(δ^1,3,5(10)-estratrien-3,17β-diol-11β-yl)-phenoxy)-N-(2,2,3,3,4,4,4-heptafluorobutyl)-N-methyl-octanamide], the IC50 in test [1] was 0.02 nM. In addition, in test [2], the “Relative affinity of the bond (RAB), Oestrogen Receptors, 2 Hrs” value worked out at 0 and the “Relative affinity of the bond (RAB) … 5 Hrs” value was found to be 23.
In the same order, the values of `CCCCN(C)C(=O)COCCCCCCOc1ccc([C@H]2C[C@]3(C)[C@@H](O)CC[C@H]3[C@@H]3CCc4cc(O)ccc4[C@H]32)cc1` [Example 83] are 0.007 nM, 3.3 and 29.
As to `CCCCN(C)C(=O)CSCCCCCc1ccc([C@H]2C[C@]3(C)[C@@H](O)CC[C@H]3[C@@H]3CCc4cc(O)ccc4[C@H]32)cc1` [Example 86], the IC50 in test [1] came to 0.009 nM. The “Relative affinity of the bond (RAB) … 5 Hrs” value in test [2] came to 11.7.
`CCCCN(C)C(=O)CCCCCCCSc1ccc([C@H]2C[C@]3(C)[C@@H](O)CC[C@H]3[C@@H]3CCc4cc(O)ccc4[C@H]32)cc1` [Example 92, N-Butyl-8-(4-(δ^1,3,5(10)-Estratrien-3,17β-Diol-11 β-yl)-Phenyl-Thio)-N-Methyl-Octanamide]: the IC50 in test [1] amounted to 0.015 nM. In test [2], the “affinity for the estrogen receptors” value is “marked affinity”; the “Relative affinity of the bond (RAB), Oestrogen Receptors, 2 Hrs” value was 2.8; the “Relative affinity of the bond (RAB) … 5 Hrs” value stood at 47.
Regarding `CCCCN(C)C(=O)CSCCCCCOc1ccc([C@H]2C[C@]3(C)[C@@H](OC(=O)CCC(=O)O)CC[C@H]3[C@@H]3CCc4cc(O)ccc4[C@H]32)cc1` [Example 96, Monobutanedioate of 11β-(4-(5-((2-(Butyl-Methylamino)-2-Oxoethyl)-Thio)-Pentyloxy)-Phenyl)δ^1,3,5(10)-Estratrien-3-ol-17 β-yl], the “Relative affinity of the bond (RAB) … 5 Hrs” value in test [2] is 16.
